Laboratory results: ChEMBL document CHEMBL1201862, “PubChem BioAssay data set” (2004)
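Exposure lasted 48 hours, with cells grown in 96-well plates and compounds tested at five concentrations. Here, GI50 denotes the concentration required for 50% inhibition of growth.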 Active and inactive are the calls of the source. Rule as the data show it: active = GI50 up to about 1.1 µM and inactive = higher.

Legend:
Assay in all cases: NCI tumour cell line growth inhibition, 48 h
[1] = test system: 786-0
[2] = test system: A549
[3] = test system: EKVX
[4] = test system: HCC 2998
[5] = test system: IGROV-1
[6] = test system: MDA-N
[7] = test system: NCI-H226
[8] = test system: NCI-H23
[9] = test system: NCI-H460
[10] = test system: OVCAR-5
[11] = test system: OVCAR-8
[12] = test system: RXF 393
[13] = test system: SR
[14] = test system: T47D
[15] = test system: U-251
[16] = test system: UACC-257
[17] = test system: UO-31
[18] = test system: ACHN
[19] = test system: LOX IMVI
[20] = test system: HL-60

Row | Structure (SMILES) | GI50 [1] | GI50 [2] | GI50 [3] | GI50 [4] | GI50 [5] | GI50 [6] | GI50 [7] | GI50 [8] | GI50 [9] | GI50 [10] | GI50 [11] | GI50 [12] | GI50 [13] | GI50 [14] | GI50 [15] | GI50 [16] | GI50 [17] | GI50 [18] | GI50 [19] | GI50 [20]
1 | COc1ccc(-c2nc(O)c3ccccc3n2)cc1OC | 36.1 µM (inactive) | 94.4 µM (inactive) | 18.1 µM (inactive) | > 100 µM (inactive) | 24.6 µM (inactive) | > 100 µM (inactive) | 18.4 µM (inactive) | > 100 µM (inactive) | > 100 µM (inactive) | > 100 µM (inactive) | 24.4 µM (inactive) | 26.4 µM (inactive) | > 100 µM (inactive) | 30.3 µM (inactive) | 23.1 µM (inactive) | > 100 µM (inactive) | > 100 µM (inactive) | – | – | –
2 | C=CC1(CCC(Br)C(C)(C)Cl)CO1 (centres undefined) | > 10 µM (inactive) | > 10 µM (inactive) | > 10 µM (inactive) | > 10 µM (inactive) | > 10 µM (inactive) | > 10 µM (inactive) | – | – | > 10 µM (inactive) | > 10 µM (inactive) | > 10 µM (inactive) | – | – | > 10 µM (inactive) | > 10 µM (inactive) | – | > 10 µM (inactive) | > 10 µM (inactive) | – | –
3 | O=C(Cc1ccccc1)NNc1nc(NNC(=O)c2ccncc2)nc(Nc2ccc([N+](=O)[O-])cc2)n1 | > 10 µM (inactive) | > 10 µM (inactive) | 9.46 µM (inactive) | > 10 µM (inactive) | > 10 µM (inactive) | 8.59 µM (inactive) | – | 6.79 µM (inactive) | > 10 µM (inactive) | > 10 µM (inactive) | > 10 µM (inactive) | – | > 10 µM (inactive) | > 10 µM (inactive) | > 10 µM (inactive) | 5.69 µM (inactive) | > 10 µM (inactive) | > 10 µM (inactive) | > 10 µM (inactive) | –
4 | COc1ccc(C(=C(Cl)c2ccccc2)c2ccc(OC)cc2)cc1 | > 100 µM (inactive) | > 100 µM (inactive) | > 100 µM (inactive) | – | > 100 µM (inactive) | > 100 µM (inactive) | > 100 µM (inactive) | > 100 µM (inactive) | > 100 µM (inactive) | > 100 µM (inactive) | > 100 µM (inactive) | > 100 µM (inactive) | – | 16.1 µM (inactive) | > 100 µM (inactive) | 86.5 µM (inactive) | > 100 µM (inactive) | > 100 µM (inactive) | > 100 µM (inactive) | 57.8 µM (inactive)
5 | COc1ccc(-c2cc(-c3ccc(Cl)cc3)n(C3OC(CO)C(O)C(O)C3O)c(=S)c2C#N)cc1 (centres undefined) | 12.5 µM (inactive) | – | – | 64.9 µM (inactive) | 26.5 µM (inactive) | > 100 µM (inactive) | – | – | 13 µM (inactive) | 33 µM (inactive) | 21 µM (inactive) | – | 42.9 µM (inactive) | 29.2 µM (inactive) | 28.1 µM (inactive) | 47.8 µM (inactive) | 16.8 µM (inactive) | > 100 µM (inactive) | > 100 µM (inactive) | –
6 | COc1cc(O)c(C(C)=O)c(O)c1 | > 100 µM (inactive) | > 100 µM (inactive) | 37.4 µM (inactive) | > 100 µM (inactive) | 77.3 µM (inactive) | > 100 µM (inactive) | – | 30.8 µM (inactive) | 88.1 µM (inactive) | > 100 µM (inactive) | 55.2 µM (inactive) | > 100 µM (inactive) | 36.3 µM (inactive) | 25.6 µM (inactive) | 63.8 µM (inactive) | > 100 µM (inactive) | 59.6 µM (inactive) | 42.7 µM (inactive) | 75.9 µM (inactive) | –
7 | CC(=O)O[C@@H]1[C@H](C(C)C)[C@@H](OC(C)=O)C/C(C)=C/CC[C@]2(C)O[C@@H]12 | > 100 µM (inactive) | > 100 µM (inactive) | > 100 µM (inactive) | > 100 µM (inactive) | > 100 µM (inactive) | > 100 µM (inactive) | > 100 µM (inactive) | > 100 µM (inactive) | > 100 µM (inactive) | > 100 µM (inactive) | > 100 µM (inactive) | > 100 µM (inactive) | – | > 100 µM (inactive) | > 100 µM (inactive) | > 100 µM (inactive) | > 100 µM (inactive) | > 100 µM (inactive) | > 100 µM (inactive) | > 100 µM (inactive)
8 | O=C(c1ccccc1)N1OCCC1Nc1ccc(Br)cc1 (centres undefined) | > 10 µM (inactive) | 3.64 µM (inactive) | > 10 µM (inactive) | 3.85 µM (inactive) | > 10 µM (inactive) | 3.8 µM (inactive) | > 10 µM (inactive) | > 10 µM (inactive) | 5.45 µM (inactive) | > 10 µM (inactive) | > 10 µM (inactive) | > 10 µM (inactive) | – | > 10 µM (inactive) | – | > 10 µM (inactive) | 1.87 µM (inactive) | 0.615 µM (active) | > 10 µM (inactive) | 3.47 µM (inactive)
9 | CCC1C(NC(=O)OC)C(=O)N1[C@@H](C)c1ccccc1 (some centres undefined) | > 100 µM (inactive) | – | > 100 µM (inactive) | > 100 µM (inactive) | > 100 µM (inactive) | > 100 µM (inactive) | > 100 µM (inactive) | > 100 µM (inactive) | > 100 µM (inactive) | > 100 µM (inactive) | > 100 µM (inactive) | > 100 µM (inactive) | > 100 µM (inactive) | > 100 µM (inactive) | > 100 µM (inactive) | > 100 µM (inactive) | > 100 µM (inactive) | > 100 µM (inactive) | > 100 µM (inactive) | –
10 | O=c1c2cc([N+](=O)[O-])cnc2sn1-c1ccc(Oc2ccccc2)cc1 | 43.5 µM (inactive) | > 100 µM (inactive) | 70.6 µM (inactive) | > 100 µM (inactive) | 82.8 µM (inactive) | 78 µM (inactive) | 45.2 µM (inactive) | 36.4 µM (inactive) | 74.1 µM (inactive) | 58.3 µM (inactive) | 82.8 µM (inactive) | – | 49.2 µM (inactive) | 10.8 µM (inactive) | 29.9 µM (inactive) | > 100 µM (inactive) | 56.6 µM (inactive) | 53.1 µM (inactive) | 44.9 µM (inactive) | 39.9 µM (inactive)
11 | O=C1/C(=C/c2ccccc2)CCCC1CN1CCCCC1 (centres undefined) | 1.87 µM (inactive) | 17.5 µM (inactive) | 15.1 µM (inactive) | 15.6 µM (inactive) | 2.97 µM (inactive) | 2.11 µM (inactive) | 3.45 µM (inactive) | 4.97 µM (inactive) | 6.58 µM (inactive) | 18.6 µM (inactive) | 2.09 µM (inactive) | 1.83 µM (inactive) | – | 1.77 µM (inactive) | 13.3 µM (inactive) | 6.07 µM (inactive) | 1.88 µM (inactive) | 3.4 µM (inactive) | 1.65 µM (inactive) | –
12 | CCN(CC)C(=S)SC(C(=O)Nc1nnc(-c2ccccc2)o1)c1ccccc1 (centres undefined) | 15.8 µM (inactive) | 15.3 µM (inactive) | 18.4 µM (inactive) | – | 15.3 µM (inactive) | 16.6 µM (inactive) | 24.7 µM (inactive) | 15.4 µM (inactive) | 9.1 µM (inactive) | 23.1 µM (inactive) | 28.8 µM (inactive) | 16.2 µM (inactive) | 5.52 µM (inactive) | 23.7 µM (inactive) | 16.1 µM (inactive) | 22.9 µM (inactive) | 10.1 µM (inactive) | 17.4 µM (inactive) | 4.23 µM (inactive) | –
13 | Cc1noc(-c2ccc(C(=O)O)[nH]2)c1Br | 29 µM (inactive) | 45.2 µM (inactive) | 30.9 µM (inactive) | 65 µM (inactive) | 16.4 µM (inactive) | > 100 µM (inactive) | – | 55.6 µM (inactive) | > 100 µM (inactive) | > 100 µM (inactive) | 15.8 µM (inactive) | 23.4 µM (inactive) | – | 17.3 µM (inactive) | 34.8 µM (inactive) | > 100 µM (inactive) | 71.6 µM (inactive) | 38.3 µM (inactive) | – | –
14 | N/C(=N\c1ccccc1)c1ccccc1N | > 100 µM (inactive) | > 100 µM (inactive) | > 100 µM (inactive) | > 100 µM (inactive) | > 100 µM (inactive) | > 100 µM (inactive) | > 100 µM (inactive) | > 100 µM (inactive) | > 100 µM (inactive) | > 100 µM (inactive) | > 100 µM (inactive) | > 100 µM (inactive) | > 100 µM (inactive) | – | > 100 µM (inactive) | > 100 µM (inactive) | > 100 µM (inactive) | > 100 µM (inactive) | > 100 µM (inactive) | 31.4 µM (inactive)
15 | CN(CCCNC(=O)c1nn(-c2ccc(Cl)cc2Cl)c2c1Cc1ccccc1-2)CCCNC(=O)c1nn(-c2ccc(Cl)cc2Cl)c2c1Cc1ccccc1-2 | 1.67 µM (inactive) | 1.77 µM (inactive) | 1.66 µM (inactive) | 1.64 µM (inactive) | 1.76 µM (inactive) | 1.7 µM (inactive) | – | 2 µM (inactive) | 1.65 µM (inactive) | 1.57 µM (inactive) | 1.81 µM (inactive) | 1.77 µM (inactive) | – | 1.92 µM (inactive) | 1.79 µM (inactive) | 1.81 µM (inactive) | 1.82 µM (inactive) | 1.67 µM (inactive) | 1.67 µM (inactive) | 1.49 µM (inactive)
16 | CN1C(=O)C2(C=CC(O)CC2)c2ccccc21 (centres undefined) | > 100 µM (inactive) | > 100 µM (inactive) | > 100 µM (inactive) | > 100 µM (inactive) | > 100 µM (inactive) | > 100 µM (inactive) | > 100 µM (inactive) | > 100 µM (inactive) | > 100 µM (inactive) | > 100 µM (inactive) | > 100 µM (inactive) | – | > 100 µM (inactive) | > 100 µM (inactive) | > 100 µM (inactive) | > 100 µM (inactive) | > 100 µM (inactive) | > 100 µM (inactive) | > 100 µM (inactive) | > 100 µM (inactive)
